According to paper PMC8596838, “Xylose‐Configured Cyclophellitols as Selective Inhibitors for Glucocerebrosidase” (Chembiochem, 2021):
Where two headings read alike, the source gives them in different places.

Assays:
[1] = target: T1, rhGBA (recombinant human GBA, Imiglucerase) (Homo sapiens, UniProt P04062, R534H); test: Fluorogenic substrate (4-MU-β-D-glucoside) enzymatic assay, rhGBA; type: biochemical; conditions: for IC50: incubation time 30 min, enzymatic assay, ±SD, n=3, read-out: In vitro apparent IC50 rhGBA
T1 construct: purchased Sanofi Genzyme (Cambridge, MA, USA)
T1 sequence (P04062 40-536 R534H): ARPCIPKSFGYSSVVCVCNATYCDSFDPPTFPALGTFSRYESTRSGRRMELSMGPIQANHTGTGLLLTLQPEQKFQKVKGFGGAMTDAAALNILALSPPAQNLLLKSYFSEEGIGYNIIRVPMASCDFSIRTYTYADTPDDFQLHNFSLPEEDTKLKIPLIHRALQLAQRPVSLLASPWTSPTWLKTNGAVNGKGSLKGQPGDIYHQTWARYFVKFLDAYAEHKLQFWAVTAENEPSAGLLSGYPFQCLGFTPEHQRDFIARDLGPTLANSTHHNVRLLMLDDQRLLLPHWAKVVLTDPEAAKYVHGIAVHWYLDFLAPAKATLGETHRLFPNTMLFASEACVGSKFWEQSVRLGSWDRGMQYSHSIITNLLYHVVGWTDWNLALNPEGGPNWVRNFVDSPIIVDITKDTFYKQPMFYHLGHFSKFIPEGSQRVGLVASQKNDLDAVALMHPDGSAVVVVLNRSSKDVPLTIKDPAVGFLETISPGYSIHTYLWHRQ
Description: (§1) Using fluorogenic substrate‐based assays, we determined apparent IC50 values at 30 min incubation time of the xylo‐cyclophellitols in rhGBA, and GBA2 and GBA3 lysates of cells expressing only each of the enzymes specifically.
(§2) Enzyme activity assays: All assays were performed with lysates of HEK293T cells or zebrafish larvae in 96‐well plates at 37 °C. Samples were diluted with McIlvaine buffer (150 mM citric acid‐Na2HPO4) to a final volume of 25 μL, at pH appropriate for each enzyme. Assays were performed by incubating the samples with 100 μL 4‐methylumbelliferyl‐β‐D‐glucoside substrates diluted in McIlvaine buffer (with 0.1 % (w/v) bovine serum albumin (BSA)) for a period of 30 min or 3 h. The substrate mixtures used for each enzyme were as follows: GBA, 3.75 mM 4‐MU‐β‐D‐glucopyranoside (Glycosynth, Warrington Cheshire, UK) at pH 5.2, supplemented with 0.2 % (w/v) sodium taurocholate, 0.1 % (v/v) Triton X‐100, 0.1 % (w/v) bovine serum albumin (BSA); GBA2, 3.75 mM 4 MU‐β‐D‐glucopyranoside at pH 5.8; GBA3, 3.75 mM 4‐MU‐β‐D‐glucopyranoside at pH 6.0. After stopping the enzyme reaction with 200 μL 1 M NaOH‐glycine (pH 10.3), 4‐methylumbelliferone fluorescence was measured with a fluorimeter LS55 (Perkin Elmer, Waltham, MA, USA) with λEX 366 nm and λEM 445 nm. Enzyme activities were determined by subtraction of background (measured for incubations without enzyme). IC50 values were determined exactly as earlier described.[36]
(§3) The IC50 values were determined using a fluorogenic enzymatic assay. For GBA, 3.16 ng (53 fmol) of rhGBA, (recombinant human GBA, Imiglucerase) obtained from Sanofi Genzyme (Cambridge, MA, USA), was prepared in 12.5 μL McIlvaine buffer (150 mM, pH 5.2) supplemented with 0.1 % (v/v) Triton X‐100, and 0.2 % (w/v) sodium taurocholate, 0.1 % (w/v) bovine serum albumin (BSA). The enzyme was incubated with 12.5 μL of inhibitors diluted in McIlvaine buffer (150 mM, pH 5.2) at 37 °C for 30 min. In the case of GBA2 or GBA3, lysates of GBA/GBA2 KO HEK293T cells overexpressing GBA2 or GBA3, respectively where used. The enzymatic activity of GBA, GBA2 and GBA3 were measured with 4MU‐β‐D‐glucoside substrate as described above.

GBA3 = target: T2, GBA3 (Homo sapiens, UniProt Q9H227); test: Fluorogenic substrate enzymatic assay, lysate of GBA/GBA2 KO HEK293T cells overexpressing GBA3; type: biochemical; conditions: for (Ratio) GBA3/GBA: IC50 ratio
T2 construct: expressed in transfected cells; host or cells: HEK293T (GBA/GBA2 KO background for the fluorogenic assay; endogenous-GBA background with GBA2 and GBA3 overexpressed for ABPP and intact-cell assays)
T2 sequence (Q9H227 1-469): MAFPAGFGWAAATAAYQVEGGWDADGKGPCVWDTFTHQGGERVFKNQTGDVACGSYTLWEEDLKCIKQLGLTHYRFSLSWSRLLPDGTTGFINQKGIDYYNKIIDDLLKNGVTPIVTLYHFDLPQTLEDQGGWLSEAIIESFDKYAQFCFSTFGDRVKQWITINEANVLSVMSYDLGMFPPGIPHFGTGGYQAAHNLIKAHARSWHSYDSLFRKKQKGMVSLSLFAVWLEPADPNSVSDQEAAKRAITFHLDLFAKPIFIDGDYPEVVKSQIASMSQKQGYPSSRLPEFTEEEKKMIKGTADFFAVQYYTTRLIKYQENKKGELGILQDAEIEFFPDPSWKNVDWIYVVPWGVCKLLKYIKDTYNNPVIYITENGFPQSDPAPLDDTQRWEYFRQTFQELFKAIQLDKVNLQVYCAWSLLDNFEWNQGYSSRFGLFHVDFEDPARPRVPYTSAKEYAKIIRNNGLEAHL
Description: as §1, §2, §3

[2] = incubation time 30 min, enzymatic assay, ±SD, n=3, read-out: In vitro apparent IC50 GBA3

| IC50 (GBA3; 30 min incubation time, read-out: apparent IC50 GBA3) | Structure (SMILES) | IC50 [1] | (Ratio) GBA3/GBA (GBA3; in vitro, 30 min) | IC50 (GBA3; [2]) | potency against GBA compared to unsubstituted xylo-cyclophellitol aziridine 2 ([1]; in vitro, 30 min) | potency against GBA3 compared to unsubstituted xylo-cyclophellitol aziridine 2 (GBA3; in vitro, 30 min) |
| --- | --- | --- | --- | --- | --- | --- |
|  | CN1/C(=C/C=C/C=C/C2=[N+](CCCCCC(=O)NCc3cn(CCCCCCCCN4[C@H]5[C@H](O)[C@@H](O)[C@H](O)C[C@H]54)nn3)c3ccccc3C2(C)C)C(C)(C)c2ccccc21 (stereo partly drawn) [ABP 6] | 6.44 ± 0.49 nM | 1561 | 10100 ± 1000 nM |  |  |
|  | CN1/C(=C/C=C/C=C/C2=[N+](CCCCCC(=O)NCc3cn(C[C@@H]4[C@@H](O)[C@H](O)[C@@H](O)[C@@H]5O[C@H]45)nn3)c3ccccc3C2(C)C)C(C)(C)c2ccccc21 [ABP 9, reference compound] | 45.2 ± 4.54 nM | 128 | 5780 ± 79 nM |  |  |
| > 25000 nM | O[C@@H]1[C@@H](O)[C@H](O)C[C@H]2O[C@@H]12 [compound 1, xylo‐cyclophellitol] | 2670 ± 94.5 nM | >19 | > 50000 nM |  |  |
|  | O[C@@H]1[C@@H](O)[C@H](O)C[C@H]2N[C@@H]12 [compound 2, β‐D‐xylo‐Cyclophellitol aziridine] | 719 ± 196 nM | >35 | > 25000 nM |  |  |
|  | OC[C@@H]1[C@@H](O)[C@H](O)[C@@H](O)[C@@H]2O[C@H]12 [compound 3, cyclophellitol] | 400 ± 12.4 nM | 129 | 51500 ± 4010 nM |  |  |
|  | OC[C@@H]1[C@@H](O)[C@H](O)[C@@H](O)[C@@H]2N[C@H]12 [compound 4, cyclophellitol aziridine, reference compound] | 341 ± 5.82 nM | 99 | 33800 ± 2430 nM |  |  |
|  | [N-]=[N+]=NCCCCCCCCN1[C@H]2[C@H](O)[C@@H](O)[C@H](O)C[C@H]21 (stereo partly drawn) [compound 5] | 1.2 ± 0.06 nM | 486 | 583 ± 202 nM | 600 fold | > 40 fold |
